Data from patent publication US7888386B2, “3-(phenoxyphenylmethyl)pyrrolidine compounds” (Theravance, Inc., priority 2008, dated 2011).
Where two headings read alike, the source gives them in different places.

Experiments:
hNET = target: T1, hNET (Homo sapiens, UniProt P23975); experiment: hNET binding assay (Assay 1)
T1 construct: expressed in transfected cells; host or cells: HEK-293 derived cell line, stably transfected; membrane preparation
Method: (§1) Membrane radioligand binding assays were used to measure competitive inhibition of labeled ligand (^3H-citalopram or ^3H-nisoxetine or ^3H-WIN35428) binding to membranes prepared from cells expressing the respective human recombinant transporter (hSERT or hNET or hDAT) in order to determine the pKi values of test compounds at the transporters.
(§2) Recombinant human embryonic kidney (HEK-293) derived cell lines stably transfected with hSERT or hNET, respectively, were grown in DMEM medium supplemented with 10% dialyzed FBS (for hSERT) or FBS (for hNET), 100 μg/ml penicillin, 100 μg/ml streptomycin, 2 mM L-glutamine and 250 μg/ml of the aminoglycoside antibiotic G418, in a 5% CO2 humidified incubator at 37° C. When cultures reached 80% confluence, the cells were washed thoroughly in PBS (without Ca^2+ and Mg^2+) and lifted with 5 mM EDTA in PBS. Cells were pelleted by centrifugation, resuspended in lysis buffer (10 mM Tris-HCl, pH 7.5 containing 1 mM EDTA), homogenized, pelleted by centrifugation, then resuspended in 50 mM Tris-HCl, pH 7.5 and 10% sucrose at 4° C. Protein concentration of the membrane suspension was determined using a Bio-Rad Bradford Protein Assay kit. Membranes were snap frozen and stored at −80° C. Chinese hamster ovary membranes expressing hDAT (CHO-DAT) were purchased from PerkinElmer and stored at −80° C.
(§3) Stock solutions (10 mM in DMSO) of test compound were prepared and serial dilutions made using Dilution Buffer (50 mM Tris-HCl, 120 mM NaCl, 5 mM KCl, pH 7.4, 0.1% BSA, 400 μM ascorbic acid).
(§4) Following a 60 minute incubation at 22° C. (or a period sufficient to reach equilibrium), the membranes were harvested by rapid filtration over a 96-well UniFilter GF/B plate, pretreated with 0.3% polyethyleneimine, and washed 6 times with 300 μl wash buffer (50 mM Tris-HCl, 0.9% NaCl, pH 7.5 at 4° C.). Plates were dried overnight at room temperature, ˜45 μl of MicroScint™-20 (Perkin Elmer) added and bound radioactivity quantitated via liquid scintillation spectroscopy. Competitive inhibition curves and saturation isotherms were analyzed using GraphPad Prism Software package (GraphPad Software, Inc., San Diego, Calif.). IC50 values were generated from concentration response curves using the Sigmoidal Dose Response (variable slope) algorithm in Prism GraphPad.

hSERT = target: T2, hSERT (Homo sapiens, UniProt P31645); experiment: hSERT binding assay (Assay 1)
T2 construct: expressed in transfected cells; host or cells: HEK-293 derived cell line, stably transfected; membrane preparation
Method: as §1, §2, §3, §4

[1] = hNET binding, the tables list only compounds with NET pKi≧8, read-out: NET pKi (converted)
[2] = ratio of binding Ki at SERT to Ki at NET, the tables list only compounds with a ratio in the range 0.1-100
[3] = hNET binding assay, read-out: NET pKi (converted)
[4] = ratio of SERT Ki to NET Ki from binding assays
[5] = membranes of HEK-293 cells expressing hNET, 1.0 nM 3H-nisoxetine, read-out: NET pKi (converted)
[6] = ratio of binding Ki at hSERT to Ki at hNET, rounded off to the nearest tenth
[7] = hNET binding, read-out: NET pKi (converted)
[8] = ratio of SERT Ki to NET Ki (binding)

T1 sequence (P23975 whole entry): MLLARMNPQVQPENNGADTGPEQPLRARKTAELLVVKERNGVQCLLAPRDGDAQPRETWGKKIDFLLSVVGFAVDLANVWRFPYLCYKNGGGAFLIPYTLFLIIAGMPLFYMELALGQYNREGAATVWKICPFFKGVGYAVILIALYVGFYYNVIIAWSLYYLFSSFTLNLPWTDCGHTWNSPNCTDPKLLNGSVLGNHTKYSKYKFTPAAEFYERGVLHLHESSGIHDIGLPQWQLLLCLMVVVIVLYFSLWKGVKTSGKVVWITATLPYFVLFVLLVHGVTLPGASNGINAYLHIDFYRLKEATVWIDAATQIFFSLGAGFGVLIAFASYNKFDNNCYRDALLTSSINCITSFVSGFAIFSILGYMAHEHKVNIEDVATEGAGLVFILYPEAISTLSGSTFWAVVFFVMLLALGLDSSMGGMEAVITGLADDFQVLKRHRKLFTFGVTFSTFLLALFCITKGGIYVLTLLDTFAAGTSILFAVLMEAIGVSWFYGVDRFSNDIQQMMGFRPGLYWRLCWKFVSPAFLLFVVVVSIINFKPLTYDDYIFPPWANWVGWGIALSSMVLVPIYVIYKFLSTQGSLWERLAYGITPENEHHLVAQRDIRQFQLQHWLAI
T2 sequence (P31645 whole entry): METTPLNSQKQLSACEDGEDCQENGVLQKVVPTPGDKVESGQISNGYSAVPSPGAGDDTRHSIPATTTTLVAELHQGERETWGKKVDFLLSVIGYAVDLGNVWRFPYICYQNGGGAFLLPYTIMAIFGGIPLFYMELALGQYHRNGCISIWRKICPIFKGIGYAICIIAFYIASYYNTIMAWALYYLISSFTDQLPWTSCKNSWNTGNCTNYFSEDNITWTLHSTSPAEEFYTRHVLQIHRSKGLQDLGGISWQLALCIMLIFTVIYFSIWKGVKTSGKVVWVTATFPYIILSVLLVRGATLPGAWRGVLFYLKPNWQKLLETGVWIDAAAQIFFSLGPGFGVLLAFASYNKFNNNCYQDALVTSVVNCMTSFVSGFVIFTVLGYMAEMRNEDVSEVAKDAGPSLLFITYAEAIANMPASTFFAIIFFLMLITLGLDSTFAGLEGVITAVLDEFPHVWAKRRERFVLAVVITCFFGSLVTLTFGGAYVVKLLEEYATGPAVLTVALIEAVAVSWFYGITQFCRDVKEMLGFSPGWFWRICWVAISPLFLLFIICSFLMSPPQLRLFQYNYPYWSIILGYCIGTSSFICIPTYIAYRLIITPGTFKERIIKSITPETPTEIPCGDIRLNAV

Structure (SMILES) | Ki (hNET; [5]) [nM] | SERT Ki/NET Ki (hSERT; [6]) | Ki (hNET; [7]) [nM] | SERT Ki/NET Ki (hSERT; [8]) | also measured
Fc1c(F)c(F)c(O[C@@H](c2ccccc2)[C@H]2CCNC2)c(F)c1F [49-1] | – | – | – | – | Ki (hNET; [1]): 3.98 nM; SERT Ki/NET Ki (hSERT; [2]): 2.5
Cc1cccc(F)c1OC(c1ccccc1)C1CCNC1 (stereo not shown) [31-6] | – | – | – | – | Ki (hNET; [3]): 1.58 nM; SERT Ki/NET Ki (hSERT; [4]): 2
Fc1cc(Cl)cc(F)c1OC(c1ccccc1)C1CCNC1 (stereo not shown) [44-8] | – | – | – | – | Ki (hNET; [1]): 3.98 nM; SERT Ki/NET Ki (hSERT; [2]): 0.1
Fc1cc(F)cc([C@H](Oc2c(Cl)c(F)cc(F)c2Cl)[C@H]2CCNC2)c1 [48-2] | – | – | – | – | Ki (hNET; [1]): 0.398 nM; SERT Ki/NET Ki (hSERT; [2]): 10
Fc1cccc(Cl)c1O[C@H](c1ccccc1)[C@@H]1CCNC1 [31-5] | – | – | – | – | Ki (hNET; [3]): 0.631 nM; SERT Ki/NET Ki (hSERT; [4]): 1.3
Fc1ccc(Cl)cc1O[C@@H](c1ccccc1)[C@H]1CCNC1 [29-5] | – | – | – | – | Ki (hNET; [3]): 0.501 nM; SERT Ki/NET Ki (hSERT; [4]): 16
Cc1ccc(F)cc1OC(c1ccccc1)C1CCNC1 (stereo not shown) [29-16] | – | – | – | – | Ki (hNET; [3]): 1.58 nM; SERT Ki/NET Ki (hSERT; [4]): 7.9
COc1cccc(C(Oc2ccccc2Cl)C2CCNC2)c1 (stereo not shown) [Compound 20-7] | 3.16 | 1.3 | – | – | –
Fc1c(Cl)cccc1OC(c1ccccc1)C1CCNC1 (stereo not shown) [Compound 25-3] | 0.794 | 0.5 | – | – | –
Fc1cc(F)cc(C(Oc2c(Cl)c(F)cc(F)c2Cl)C2CCNC2)c1 (stereo not shown) [48-1] | – | – | – | – | Ki (hNET; [1]): 0.501 nM; SERT Ki/NET Ki (hSERT; [2]): 2
Cc1cccc(O[C@@H](c2ccccc2)[C@H]2CCNC2)c1C [Compound 25-24] | 2.51 | 0.3 | – | – | –
Clc1cccc(C(Oc2ccccc2Cl)C2CCNC2)c1 (stereo not shown) [Compound 20-5] | 2.51 | 1.6 | – | – | –
COc1c(F)cccc1O[C@@H](c1ccccc1)[C@H]1CCNC1 [Compound 25-26] | 1.26 | 13 | – | – | –
Cc1c(F)ccc(OC(c2ccccc2)C2CCNC2)c1F (stereo not shown) [36-7] | – | – | 5.01 | 0.3 | –
Cc1c(F)cccc1O[C@@H](c1ccccc1)[C@H]1CCNC1 [Compound 25-19] | 0.794 | 4 | – | – | –
Cc1cccc([C@@H](Oc2ccccc2Cl)[C@@H]2CCNC2)c1 (racemic) [Compound 20-6] | 3.98 | 1.6 | – | – | –
Fc1cc(F)c(Cl)c(OC(c2ccccc2Cl)C2CCNC2)c1Cl (stereo not shown) [48-4] | – | – | – | – | Ki (hNET; [1]): 7.94 nM; SERT Ki/NET Ki (hSERT; [2]): 0.2
Cc1ccc(Cl)c(O[C@H](c2cc(F)cc(F)c2)[C@@H]2CCNC2)c1F [41-9] | – | – | 0.794 | 0.8 | –
Fc1cccc(Cl)c1O[C@@H](c1ccccc1)[C@H]1CCNC1 [31-4] | – | – | – | – | Ki (hNET; [3]): 0.126 nM; SERT Ki/NET Ki (hSERT; [4]): 40
Cc1ccc(Cl)c(O[C@H](c2cccc(CO)c2)[C@H]2CCNC2)c1Cl [41-17] | – | – | 1 | 5 | –
Fc1ccc(Oc2cccc(O[C@H](c3ccccc3)[C@@H]3CCNC3)c2)cc1 (racemic) [Compound 21-15] | 2 | 1 | – | – | –
Fc1ccc(C(Oc2cc(Cl)cc(Cl)c2)C2CCNC2)cc1 (stereo not shown) [35-9] | – | – | 7.94 | 0.1 | –
Cc1ccc(Cl)c(OC(c2ccc(Cl)cc2)C2CCNC2)c1Cl (stereo not shown) [41-19] | – | – | 1.26 | 0.6 | –
Fc1cc(Cl)c(O[C@@H](c2ccccc2)[C@H]2CCNC2)c(Cl)c1 [44-21] | – | – | – | – | Ki (hNET; [1]): 6.31 nM; SERT Ki/NET Ki (hSERT; [2]): 0.5
COc1ccc(F)c(Cl)c1O[C@@H](c1ccccc1)[C@H]1CCNC1 [40-22] | – | – | 0.631 | 13 | –

Structure (SMILES) | Ki (hNET; [5]) [nM] | SERT Ki/NET Ki (hSERT; [6]) | Ki (hNET; [7]) [nM] | SERT Ki/NET Ki (hSERT; [8]) | also measured
Clc1ccccc1OC(c1ccccc1Cl)C1CCNC1 (stereo not shown) [Compound 20-1] | 3.16 | 0.5 | – | – | –
CC(=O)c1c(F)cccc1OC(c1ccccc1)C1CCNC1 (stereo not shown) [Compound 25-30] | 3.16 | 10 | – | – | –
COc1ccc(F)c(OC(c2ccccc2)C2CCNC2)c1F (stereo not shown) [40-4] | – | – | 0.631 | 6.3 | –
Fc1c(Cl)ccc(O[C@@H](c2ccccc2)[C@H]2CCNC2)c1F [36-3] | – | – | 6.31 | 0.1 | –
COc1ccc(F)cc1O[C@@H](c1cc(F)cc(F)c1)[C@H]1CCNC1 [30-5] | – | – | – | – | Ki (hNET; [3]): 0.501 nM; SERT Ki/NET Ki (hSERT; [4]): 79
Fc1cc(F)cc(C(Oc2cc(F)cc(F)c2F)C2CCNC2)c1 (stereo not shown) [39-3] | – | – | 6.31 | 0.4 | –
Clc1cc(Cl)c(Cl)c(OC(c2ccccc2)C2CCNC2)c1Cl (stereo not shown) [Ex. 10-2, 3-[phenyl-(2,3,5,6-tetrachlorophenoxy)methyl]pyrrolidine] | – | – | – | – | Ki (hNET; NET pKi, hNET binding, the tables list only compounds with NET pKi≧8): 1.26 nM; SERT Ki/NET Ki (hSERT; [2]): 0.1
Fc1cc(F)cc(C(Oc2c(F)ccc(Cl)c2F)C2CCNC2)c1 (stereo not shown) [41-5] | – | – | 0.2 | 50 | –
Clc1cc(Br)cc(OC(c2ccccc2)C2CCNC2)c1 (stereo not shown) [34-11] | – | – | – | – | Ki (hNET; [3]): 2.51 nM; SERT Ki/NET Ki (hSERT; [4]): 0.1
FC(F)(F)Oc1ccccc1OC(c1ccccc1)C1CCNC1 (stereo not shown) [Compound 19-18] | 1.26 | 20 | – | – | –
Brc1cccc(OC(c2ccccc2)C2CCNC2)c1 (stereo not shown) [Compound 21-5] | 3.16 | 0.2 | – | – | –
Brc1ccccc1OC(c1ccccc1)C1CCNC1 (stereo not shown) [Compound 19-7] | 1 | 1 | – | – | –
COC(=O)c1c(F)cccc1OC(c1ccccc1)C1CCNC1 (stereo not shown) [Compound 25-34] | 1 | 100 | – | – | –
Fc1cc(F)cc(C(Oc2c(Cl)ccc(Cl)c2Cl)C2CCNC2)c1 (stereo not shown) [41-11] | – | – | 0.398 | 0.8 | –
COc1ccc(F)cc1O[C@H](c1ccccc1)[C@@H]1CCNC1 [29-25] | – | – | – | – | Ki (hNET; [3]): 7.94 nM; SERT Ki/NET Ki (hSERT; [4]): 0.3
COc1cc(Cl)c(F)cc1OC(c1ccccc1)C1CCNC1 (stereo not shown) [42-8] | – | – | 1.26 | 0.4 | –
COC(=O)c1cccc(Cl)c1O[C@@H](c1ccccc1)[C@H]1CCNC1 [31-17] | – | – | – | – | Ki (hNET; [3]): 3.16 nM; SERT Ki/NET Ki (hSERT; [4]): 25
Clc1cccc(OC(c2cccc(Cl)c2)C2CCNC2)c1 (stereo not shown) [Compound 22-4] | 7.94 | 0.2 | – | – | –
Fc1cccc(O[C@H](c2ccccc2)[C@@H]2CCNC2)c1F [Compound 25-2] | 6.31 | 0.2 | – | – | –
CCc1cc(F)ccc1OC(c1ccccc1)C1CCNC1 (stereo not shown) [27-23] | – | – | – | – | Ki (hNET; [3]): 1 nM; SERT Ki/NET Ki (hSERT; [4]): 0.8
COc1cc(Cl)c(F)cc1OC(c1cc(F)cc(F)c1)C1CCNC1 (stereo not shown) [43-2] | – | – | 2 | 1.3 | –
Cc1ccc(Cl)c(O[C@@H](c2cc(F)cc(F)c2)[C@@H]2CCNC2)c1Cl (racemic) [41-25] | – | – | 6.31 | 0.2 | –
COc1cc(F)ccc1OC(c1ccccc1)C1CCNC1 (stereo not shown) [27-25] | – | – | – | – | Ki (hNET; [3]): 0.794 nM; SERT Ki/NET Ki (hSERT; [4]): 4.6
Clc1cc(Cl)cc(OC(c2ccccc2Cl)C2CCNC2)c1 (stereo not shown) [35-3] | – | – | 3.16 | 0.1 | –
COc1ccccc1OC(c1cccc(CO)c1)C1CCNC1 (stereo not shown) [Compound 20-26] | 3.98 | 10 | – | – | –
